Like-named read-outs stand apart in the source and are kept apart here.
Key:
Cotton aphids = assay: Efficacy against cotton aphids (spray on cucumber leaves); format: in vivo; conditions: for mortality at 125 ppm: 168 h, read-out: Control E fficacy (7 days later) 125ppm
Experimental: Test Example 1: Efficacy against cotton aphids
Cotton aphids were inoculated at the rate of 30-50 aphids per plot on 10 days old cucumber leaves grown in 10 cm pot by using small brush respectively. The aphids injured during inoculation were eliminated after one day, then the compound solution adjusted to 125 ppm concentration by dilution emulsifiable concentrate according to the recipe of the Example 6 with water was sprayed thereto. The aphids were allowed to stand in incubator maintained at 25 °C and 65% R.H., then counted the number of living aphids after 7 days whereby the control ratio was determined in comparison with the untreated plot.

[1] = system: resistant-strain of planthoppers for organophosphate and carbamate insecticides; assay: Efficacy against planthoppers (rice seedling dip); format: in vivo; conditions: Oryza sativa, 120 h, read-out: Mortality (5days later) 125 ppm
From the text: Test Example 2: Efficacy against planthoppers
Young seedlings of rice plant at the stage of 7 days after germination were dipped for 30 seconds in the compound solution of the emulsifiable concentrate according to the recipe of Example 6 adjusted to 125 ppm concentration by diluting with water. After seedlings were dried, they were put into the inside of test tubes and 10 third instar larva of resistant-strain of planthoppers for organophosphate and carbamate insecticides were respectively inoculated in each test tube. The test tubes were shielded with gauze and allowed to stand in the incubator maintained at 25°C and 65% R.H., then the percentage killed were counted after 5 days.

[2] = 125 ppm spray of emulsifiable concentrate (Example 6) on cucumber leaves, living aphids counted after 7 days, compared with the untreated plot, 25 °C, 65% R.H.
[3] = rice seedlings dipped 30 seconds in 125 ppm solution, 10 third instar larva per test tube, percentage killed after 5 days, 25°C, 65% R.H.

Compound: Cc1nc(N(C)C)nc(OC(=O)N(C)C)c1C [Comparative Compound A, Pyrimicarb, reference compound]
- Control E fficacy (7 days later) 125ppm (Cotton aphids; [2]): 0%

Compound: CCOC(=O)CC(SP(=S)(OC)OC)C(=O)OCC (stereo not shown) [Comparative Compound B, Malathion, reference compound]
- mortality at 125 ppm [1]: 0%

Compound: O=C1C=C(NCc2ccc(Cl)nc2)CCC1 [Compound No. 1, 1-(2-chloro-5-pyridylmethylamino)-1-cyclohexene-3-on]
- mortality at 125 ppm (Cotton aphids): 100%
- mortality at 125 ppm [1]: 100%

Compound: Cn1c(NCc2ccc(Cl)nc2)cc(=O)n(C)c1=O [Compound No. 70, 4-(2-chloro-5-pyridylmethylamino)-1,3-dimethyluracil]
- mortality at 125 ppm [1, 3]: 100%

Compound: Cn1c(NCc2ccc(Cl)nc2)c([N+](=O)[O-])c(=O)n(C)c1=O [Compound No. 71, 4-(2-chloro-5-pyridylmethylamino)-1,3-dimethyl-5-nitrouracil]
- mortality at 125 ppm [1, 3]: 100%

Compound: Cc1cc(NCc2ccc(Cl)nc2)cc(=O)o1 [Compound No. 77, 4-(2-chloro-5-pyridylmethylamino)-6-methylpyran-2-on]
- mortality at 125 ppm [1]: 100%

Compound: O=C1CCCC(NCc2ccc(Cl)nc2)=C1Cl [compound 23]
- mortality at 125 ppm [1, 3]: 100%

Compound: CC1CCC(NCc2ccc(Cl)nc2)=CC1=O (stereo not shown) [compound 29]
- mortality at 125 ppm (Cotton aphids; [2]): 100%
- mortality at 125 ppm [1, 3]: 100%

Compound: CC1(C)CCC(NCc2ccc(Cl)nc2)=CC1=O [compound 30]
- mortality at 125 ppm [1, 3]: 100%

Compound: CSC1CCC(NCc2ccc(Cl)nc2)=CC1=O (stereo not shown) [compound 31]
- mortality at 125 ppm (Cotton aphids; [2]): 100%
- mortality at 125 ppm [1, 3]: 100%

Compound: CC1CC(=O)C=C(NCc2ccc(Cl)nc2)C1 (stereo not shown) [compound 34]
- mortality at 125 ppm [1, 3]: 100%

Compound: CSC1CCC(N(C)Cc2ccc(Cl)nc2)=CC1=O (stereo not shown) [compound 42]
- mortality at 125 ppm [1, 3]: 100%

Compound: O=C1C=C(NCc2cnc(Cl)s2)CCC1 [compound 59]
- mortality at 125 ppm (Cotton aphids; [2]): 100%
- mortality at 125 ppm [1, 3]: 100%

Compound: CN(Cc1cnc(Cl)s1)C1=CC(=O)CCC1 [compound 60]
- mortality at 125 ppm (Cotton aphids; [2]): 100%
- mortality at 125 ppm [1, 3]: 100%

Compound: Cc1cc(NCc2ccc(Cl)nc2)c([N+](=O)[O-])c(=O)n1C [compound 69]
- mortality at 125 ppm [1, 3]: 100%

Compound: CN1C(=O)C([N+](=O)[O-])=C(NCc2ccc(Cl)nc2)N(C)S1(=O)=O [compound 73]
- mortality at 125 ppm [1, 3]: 100%

Compound: O=C1C=C(NCc2ccc(Cl)nc2)CCO1 [compound 74]
- mortality at 125 ppm (Cotton aphids; [2]): 100%
- mortality at 125 ppm [1, 3]: 100%

Compound: CC1CC(NCc2ccc(Cl)nc2)=CC(=O)O1 (stereo not shown) [compound 75]
- mortality at 125 ppm (Cotton aphids; [2]): 100%
- mortality at 125 ppm [1, 3]: 100%

Compound: O=C1C=C(NCc2ccc(Cl)nc2)CSC1 [compound 80]
- mortality at 125 ppm [1, 3]: 100%

Compound: CN(Cc1ccc(Cl)nc1)C1=CC(=O)OCC1 [compound 82]
- mortality at 125 ppm (Cotton aphids; [2]): 100%
- mortality at 125 ppm [1, 3]: 100%

Compound: O=C1C=C(NCc2ccc(Cl)nc2)CO1 [compound 83]
- mortality at 125 ppm (Cotton aphids; [2]): 100%
- mortality at 125 ppm [1, 3]: 100%

Compound: CN(Cc1ccc(Cl)nc1)C1=CC(=O)OC1 [compound 84]
- mortality at 125 ppm (Cotton aphids; [2]): 100%
- mortality at 125 ppm [1, 3]: 100%

Compound: CCN(Cc1ccc(Cl)nc1)C1=CC(=O)OC1 [compound 85]
- mortality at 125 ppm (Cotton aphids; [2]): 100%
- mortality at 125 ppm [1, 3]: 100%

Compound: CCCN(Cc1ccc(Cl)nc1)C1=CC(=O)OC1 [compound 86]
- mortality at 125 ppm (Cotton aphids; [2]): 100%
- mortality at 125 ppm [1, 3]: 100%

Compound: O=C1C=C(N(Cc2ccc(Cl)nc2)C2CC2)CO1 [compound 88]
- mortality at 125 ppm (Cotton aphids; [2]): 100%
- mortality at 125 ppm [1, 3]: 100%

Compound: CC(C)CN(Cc1ccc(Cl)nc1)C1=CC(=O)OC1 [compound 89]
- mortality at 125 ppm (Cotton aphids; [2]): 100%
- mortality at 125 ppm [1, 3]: 100%

Compound: C=CCN(Cc1ccc(Cl)nc1)C1=CC(=O)OC1 [compound 91]
- mortality at 125 ppm (Cotton aphids; [2]): 100%
- mortality at 125 ppm [1, 3]: 100%

Compound: O=C1C=C(N(Cc2ccc(Cl)nc2)C(=O)C2CC2)CO1 [compound 96]
- mortality at 125 ppm [1, 3]: 100%

Compound: CON(Cc1ccc(Cl)nc1)C1=CC(=O)OC1 [compound 98]
- mortality at 125 ppm (Cotton aphids; [2]): 100%
- mortality at 125 ppm [1, 3]: 100%

Compound: O=C1OCC(NCc2ccc(Cl)nc2)=C1Br [compound 103]
- mortality at 125 ppm (Cotton aphids; [2]): 100%
- mortality at 125 ppm [1, 3]: 100%

Compound: CN(Cc1ccc(Cl)nc1)C1=C(F)C(=O)OC1 [compound 104]
- mortality at 125 ppm (Cotton aphids; [2]): 100%
- mortality at 125 ppm [1, 3]: 100%

Compound: O=C1OCC(N(Cc2ccc(Cl)nc2)C2CC2)=C1F [compound 105]
- mortality at 125 ppm (Cotton aphids; [2]): 100%
- mortality at 125 ppm [1, 3]: 100%

Compound: O=C1C=C(NCc2ccc(Cl)nc2)CS1 [compound 111]
- mortality at 125 ppm (Cotton aphids; [2]): 100%
- mortality at 125 ppm [1, 3]: 100%

Compound: CN(Cc1ccc(Cl)nc1)C1=CC(=O)SC1 [compound 112]
- mortality at 125 ppm (Cotton aphids; [2]): 100%
- mortality at 125 ppm [1, 3]: 100%

Compound: CC1OC(=O)C=C1NCc1ccc(Cl)nc1 (stereo not shown) [compound 116]
- mortality at 125 ppm (Cotton aphids; [2]): 100%
- mortality at 125 ppm [1, 3]: 100%

Compound: CC1OC(=O)C=C1N(C)Cc1ccc(Cl)nc1 (stereo not shown) [compound 117]
- mortality at 125 ppm (Cotton aphids; [2]): 100%
- mortality at 125 ppm [1, 3]: 100%

Compound: O=C1C=C(NCc2cnc(Cl)s2)CO1 [compound 143]
- mortality at 125 ppm (Cotton aphids; [2]): 100%
- mortality at 125 ppm [1, 3]: 100%

Compound: CN(Cc1cnc(Cl)s1)C1=CC(=O)OC1 [compound 144]
- mortality at 125 ppm (Cotton aphids; [2]): 100%
- mortality at 125 ppm [1, 3]: 100%

Compound: CN1CC(NCc2ccc(Cl)nc2)=CC1=O [compound 161]
- mortality at 125 ppm [1, 3]: 100%

Compound: CN(Cc1ccc(Cl)nc1)C1=CC(=O)CC1 [compound 175]
- mortality at 125 ppm (Cotton aphids; [2]): 100%
- mortality at 125 ppm [1, 3]: 100%

Compound: CC1=C(N(C)Cc2ccc(Cl)nc2)CCC1=O [compound 187]
- mortality at 125 ppm [1, 3]: 100%

Source: patent EP0539588A1, “AMINE DERIVATIVE” (NIPPON SODA CO., LTD., priority 1990, dated 1992)
